# Results published in patent US20060167106A1, “Compounds acting at the centrosome” (priority 2004, published 2006).
# “Also recorded” adds a separate entry of the source.
# Experiments:
# CHO cells = assay: Cell morphology, simultaneous time-lapse imaging of CHO cells; format: cell-based, Chinese hamster; details: for cell death: cells, after a certain period of treatment
# Procedure: CV-1 cells and CHO cells were previously cultured in 2-well chambered cover-slips for 48 hours and incubated in 15 mM HEPES buffer-containing Ham's F-12/DMEM medium with different compounds. The cells were imaged using phase contrast settings with the Nikon TE300 microscope/digital imaging system. The cells were imaged ‘simultaneously’ under control of MetaVue software by capturing frames for cells from different conditions at the same time period using a motorized automated XYZ stage.
# To track the effect of Compound 1 on live cells, non-transfected CV-1 cells with were treated with 500 nM Compound 1 and phase contrast time-lapse images were taken every 10 seconds. […] A very low concentration of Taxol (10 nM) was used.
# [1] = target: T1, bovine red blood cell 20S proteasome (Bos taurus, UniProt Q32KL2); assay: 20S Proteasome Assay (in vitro, Suc-Leu-Val-Tyr-AMC); format: biochemical; details: isolated 20S proteasome; for proteasome activity in vitro: 5 nM
# T1 construct: bovine red blood cell 20S proteasome; purchased Calbiochem; host or cells: purified from bovine red blood cells
# Procedure: 190 μl of reaction buffer (500 mM HEPES, 10 nM EDTA, pH 7.6), containing 0.03% SDS was pre-incubated for 5 minutes at 37° C. in the presence of 0.2 μg of bovine red blood cell 20S proteasome (Calbiochem, San Diego, Calif.) for temperature equilibration. Subsequently, inhibitors or Compound 1 were added to the reaction mixture at a final DMSO concentration of 0.5%. The reaction was initiated by adding 10 μl of the peptide-AMC substrate (Calbiochem, San Diego, Calif.) to each well. The emitted fluorescence was then measured every third minute at 37° C. for 90 minutes by a fluorescence plate reader (FlexStation II, Molecular Devices, Sunnyvale, Calif.) at 460 nm (λex360 nm) wavelength.
# The buffers and reagents for the assay were purchased from Calbiochem (20S Proteasome Assay Kit; Calbiochem, San Diego, Calif.). The principle of the assay is that the release of free AMC (7-Amino-4-methylcoumarin) following degradation of the substrate results in a fluorescent signal that is a measure of proteasome activity. The quantitative analysis of 20S proteasome activity was assayed as described.
# CHO-α-tubulin-YFP cells = assay: α-tubulin-YFP localization in CHO-α-tubulin-YFP cells (fluorescence imaging); format: cell-based, Chinese hamster; details: for accumulation of tubulin in the centrosomes (overall statement): CHO-tubulin-YFP cells, concentration and time not given; for accumulation of tubulin at the centrosomes versus in the nucleus (overall statement): cells treated, concentration not given
# Description: Wild-type Chinese Hamster Ovary cells (WT CHO) cells were maintained in Ham's F-12 medium supplemented with 10% fetal bovine serum (FBS; HyClone, Logan, Utah). Cells of low density (˜20%) growing on 2-well chambered cover-slips (Labtek (Campbell, Calif.) or Fisher Scientific) were transfected with a mammalian expression vector encoding α-tubulin-YFP (Clontech, Palo Alto, Calif.) with the use of FuGENE 6 (Roche Molecular Biochemicals, Indianapolis, Ind.), according to the manufacturer's instructions. Twenty-four hours after transfection, the cells were cultured in 400 μg/ml G418 (Invitrogen, Carlsbad, Calif.)-containing selection medium for 2 weeks. Living cells were examined using a fluorescent microscope for α-tubulin-YFP expression. Cells in single colonies containing microtubules labeled with α-tubulin-YFP were lifted and expanded in G418-containing medium. Expression of α-tubulin-YFP was confirmed by the presence of the tubulin-YFP labeled microtubule pattern identical to immunostained microtubule pattern of non-transfected cells, as well as by subjecting the cells to Western blot analysis using an anti-GFP antibody (Roche Molecular Biochemicals, Basel, Switzerland) and confirming the correct mass of the α-tubulin-YFP chimera protein. Expressed tubulin-YFP was detected as a single band in Western blots. The tubulin-YFP expressing cell lines (referred as CHO-α-tubulin-YFP cells) were used in the studies.
# CHO-α-tubulin-YFP cells were cultured in 2-well chambered cover-slips (Labtek (Campbell, Calif.) or Fisher Scientific) 24 hours before treatment. For comparison of the centrosomal effects of treatment with Compound 1, Compound 1+Taxol, and Taxol, CHO-α-tubulin-YFP cells were treated with Compound 1, Compound 1+Taxol, Taxol, or equivalent concentrations of DMSO-containing media for various time periods before imaging. For comparison of the effects of Compound 1 and known proteasome inhibitors on centrosomes, the nucleus, and perinuclear regions, CHO-α-tubulin-YFP cells were treated with Compound 1, ALLN (Calbiochem, San Diego, Calif.), lactacystin (Calbiochem, San Diego, Calif.) or MG132 (Calbiochem, San Diego, Calif.), and imaged at various time points from 3 hours to 24 hours after treatment.
# Tubulin-YFP fluorescence in living cells or fixed cells was captured using a standard filter for FITC and objectives of 20× or 60× magnification on a Nikon TE300 microscope with a Leica DC50 color digital camera (Leica, Bannockburn, Ill.) or a CoolSnap HQ Monochrome CCD camera (Photonetrics, Tucson, Ariz.). The Leica DC50 and CoolSnapHQ cameras were controlled with Leica DC50 software and MetaVue/MetaMorph software, respectively (Universal Imaging Corp, Downingtown, Pa.).
# CHO-α-tubulin-YFP cells were cultured in 2-well chambered cover-slips (Labtek (Campbell, Calif.) or Fisher Scientific) 24 hours before treatment. For comparison of effects on the centrosome, nucleus, and perinuclear regions, cells were treated with Compound 1 and known proteasome inhibitors including ALLN, MG132, Lactacystin, MG115, clasto-Lactacystin β-Lactone (cLβL), and Epoxomicin (10 μM final concentration for all except ALLN, which was used at 100 μM final concentration) (proteasome inhibitors were from Calbiochem, San Diego, Calif.) and imaged at various time points up to 24 hours during treatment.
# Tubulin-YFP fluorescence in living cells or fixed cells was captured using a standard filter for FITC and objectives of 20× or 60× magnification on the Nikon TE300 microscope/digital imaging system.
compound,measurement,setting,value
CN(NC(=O)CC(=O)NN(C)C(=S)c1ccccc1)C(=S)c1ccccc1 [Compound 1],time of induced cell shrinkage,"CHO cells; CHO cells, 500 nM",70 min
same,cell death,CHO cells,cause cell death after a certain period of treatment
same,proteasome inhibitory activity in vitro (overall statement),[1],very weak proteasome inhibitory activity in the in vitro assay
same,proteasome activity in vitro,[1],no effect on proteasome activity
same,proteasome inhibitory activity in vitro,[1]; 50 μM,"did not exhibit significant proteasome inhibitory activity; also recorded: neither Compound 1 nor its salt form, Compound 2, displayed significant proteasome inhibitory activity"
same,proteasome inhibitory activity in vitro (overall statement),[1]; listed as GMP-grade Compound 1,failed to inhibit isolated proteasomes
same,accumulation of α-tubulin-YFP at centrosomes,"CHO-α-tubulin-YFP cells; CHO cells, 50 nM, 8 hours",accumulation of α-tubulin-YFP at centrosomes; also recorded: induced accumulation of tubulin at centrosomes within 8 hours
same,accumulation of α-tubulin-YFP at centrosomes,"CHO-α-tubulin-YFP cells; CHO cells, 50 nM, 20 hours",accumulation of α-tubulin-YFP at centrosomes
same,accumulation of α-tubulin-YFP at centrosomes,"CHO-α-tubulin-YFP cells; CHO cells, 100 nM, 4 hours",accumulation of tubulin at centrosomes could be observed; also recorded: accumulation of α-tubulin-YFP at centrosomes
same,accumulation of α-tubulin-YFP at the centrosomes,"CHO-α-tubulin-YFP cells; CHO cells, 0.5 μM, 5 hours",accumulation of α-tubulin-YFP at the centrosomes and perinuclear regions
same,accumulation of α-tubulin-YFP at the centrosomes,"CHO-α-tubulin-YFP cells; CHO cells, 0.5 μM, 11 hours",accumulation of α-tubulin-YFP at the centrosomes; also recorded: more frequent and greater accumulation of tubulin at the centrosome
same,accumulation of tubulin-YFP at the centrosomes,"CHO-α-tubulin-YFP cells; CHO cells, 0.5 μM, 24 hours",accumulation of tubulin-YFP at the centrosomes
same,accumulation of α-tubulin-YFP at centrosomes,"CHO-α-tubulin-YFP cells; CHO cells, 500 nM, 4 hours",accumulation of α-tubulin-YFP at centrosomes
same,accumulation of α-tubulin-YFP at centrosomes,"CHO-α-tubulin-YFP cells; CHO cells, 500 nM, 20 hours",accumulation of α-tubulin-YFP at centrosomes
same,"first sign of tubulin accumulation at the centrosomes, time after treatment","CHO-α-tubulin-YFP cells; CHO cells, Compound 1 alone (0.5 μM)",5 h
same,accumulation of tubulin in the centrosomes (overall statement),CHO-α-tubulin-YFP cells,time-dependent accumulation of α-tubulin-YFP at the centrosomes; also recorded: caused an accumulation of tubulin in the centrosomes
same,accumulation of tubulin at the centrosomes versus in the nucleus (overall statement),CHO-α-tubulin-YFP cells,induced accumulation of tubulin only at the centrosomes; also recorded: not observed
CC(C)C[C@H](NC(=O)[C@H](Cc1ccccc1)NC(=O)c1cnccn1)B(O)O [Velcade],effect on cell morphology,"CHO cells; CHO cells, 100 nM",did not dramatically affect cell morphology until cell death
same,time of cell death,"CHO cells; CHO cells, 100 nM",210 min
same,cell death,CHO cells,cause cell death after a certain period of treatment
same,proteasome activity in vitro,[1],almost complete inhibition
same,proteasome inhibition in vitro,[1]; 0.5 μM,almost completely inhibited the proteasome
same,accumulation of α-tubulin-YFP at centrosomes,"CHO-α-tubulin-YFP cells; CHO cells, 50 nM, 20 hours",accumulation of α-tubulin-YFP at centrosomes
same,accumulation of α-tubulin-YFP in the nucleus,"CHO-α-tubulin-YFP cells; CHO cells, 50 nM, 20 hours",accumulation of α-tubulin-YFP in the nucleus
same,accumulation of α-tubulin-YFP at centrosomes,"CHO-α-tubulin-YFP cells; CHO cells, 500 nM, 4 hours",lack of accumulation of tubulin-YFP at the centrosomes
same,accumulation of α-tubulin-YFP at centrosomes,"CHO-α-tubulin-YFP cells; CHO cells, 500 nM, 8 hours",accumulation of α-tubulin-YFP at centrosomes
same,accumulation of α-tubulin-YFP in the nucleus,"CHO-α-tubulin-YFP cells; CHO cells, 500 nM, 8 hours",accumulation α-tubulin-YFP in the nucleus
same,accumulation of α-tubulin-YFP at centrosomes,"CHO-α-tubulin-YFP cells; CHO cells, 500 nM, 20 hours",accumulation of α-tubulin-YFP at centrosomes
same,accumulation of α-tubulin-YFP in the nucleus,"CHO-α-tubulin-YFP cells; CHO cells, 500 nM, 20 hours",accumulation of α-tubulin-YFP in the nucleus
same,accumulation of tubulin in the centrosomes (overall statement),CHO-α-tubulin-YFP cells,required a higher concentration (500 nM; FIG. 25D) and/or a longer time period
same,accumulation of tubulin at the centrosomes versus in the nucleus (overall statement),CHO-α-tubulin-YFP cells,both accumulation of tubulin at the centrosomes and in the nucleus; also recorded: induced accumulation of tubulin in the nucleus
